Here are results for 18 compounds from PubChem BioAssay AID292 (DTP/NCI, 2004).

Each structure is given as a SMILES string. “And” between values parts separate entries of the source, which are not always exact repeats. Identical values can stand only once. Toxic doses and inconclusive results are not listed.

This test relates to B6C3F1 mice, ip Sarcoma M5076, median survival T/C. The test can be described thus: NCI In Vivo Anticancer Drug Screen. Data for tumor model Sarcoma M5076 (intraperitoneal) in B6C3F1 mice. Particulars: endpoint: median survival time, higher = longer survival. The method in brief:
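Antitumour effect is judged in tumour-bearing mice by comparing survival after compound dosing against vehicle-only animals, reported as T/C.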

The mark [1] stands for this setting: dose: 75.0 mg/kg/injection, schedule: Q04DX004 (ip), vehicle: saline.
Where [2] appears, read: dose: 150.0 mg/kg/injection, schedule: Q04DX004 (ip), vehicle: saline.
[3] abbreviates: dose: 300.0 mg/kg/injection, schedule: Q04DX004 (ip), vehicle: saline.
Setting [4] is: dose: 31.25 mg/kg/injection, schedule: Q04DX004 (ip), vehicle: saline with Tween-80.
Setting [5] is: dose: 62.5 mg/kg/injection, schedule: Q04DX004 (ip), vehicle: saline with Tween-80.
The mark [6] stands for this setting: dose: 125.0 mg/kg/injection, schedule: Q04DX004 (ip), vehicle: saline with Tween-80.
The mark [7] stands for this setting: dose: 25.0 mg/kg/injection, schedule: Q04DX004 (ip), vehicle: saline with Tween-80.
Setting [8] is: dose: 50.0 mg/kg/injection, schedule: Q04DX004 (ip), vehicle: saline with Tween-80.
Setting [9] is: dose: 100.0 mg/kg/injection, schedule: Q04DX004 (ip), vehicle: saline with Tween-80.
Where [10] appears, read: dose: 200.0 mg/kg/injection, schedule: Q04DX004 (ip), vehicle: saline with Tween-80.
Where [11] appears, read: dose: 400.0 mg/kg/injection, schedule: Q04DX004 (ip), vehicle: saline with Tween-80.
Setting [12] is: dose: 50.0 mg/kg/injection, schedule: Q04DX004 (ip), vehicle: Klucel (hydroxypropylcellulose) (HPC).
Setting [13] is: dose: 100.0 mg/kg/injection, schedule: Q04DX004 (ip), vehicle: Klucel (hydroxypropylcellulose) (HPC).
Where [14] appears, read: dose: 200.0 mg/kg/injection, schedule: Q04DX004 (ip), vehicle: Klucel (hydroxypropylcellulose) (HPC).

Turning to `O=C1c2ccccc2C(=O)c2c(NCCNCCO)ccc(NCCNCCO)c21`, the T/C is, setting by setting: (dose: 1.0 mg/kg/injection, schedule: Q04DX004 (ip), vehicle: saline) 112 % of control; (dose: 2.0 mg/kg/injection, schedule: Q04DX004 (ip), vehicle: saline) 120 % of control; (dose: 5.0 mg/kg/injection, schedule: Q04DX005 (ip), vehicle: saline) 234 % of control; (dose: 8.0 mg/kg/injection, schedule: Q04DX004 (ip), vehicle: saline) 158 % of control; (dose: 10.0 mg/kg/injection, schedule: Q04DX005 (ip), vehicle: saline) 319 % of control; (dose: 16.0 mg/kg/injection, schedule: Q04DX004 (ip), vehicle: saline) 174 % of control. The T/C reads like this: (dose: 20.0 mg/kg/injection, schedule: Q04DX004 (ip), vehicle: suspension in saline) 156 % of control; (dose: 40.0 mg/kg/injection, schedule: Q04DX004 (ip), vehicle: suspension in saline) 172 % of control.

Take `NC(CCC(=O)NC(CS)C(=O)NCC(=O)O)C(=O)O` (stereo unspecified): the T/C under setting [1] is 110 % of control; the T/C under setting [2] was 100 % of control; the T/C under setting [3] was 102 % of control; the T/C (dose: 600.0 mg/kg/injection, schedule: Q04DX004 (ip), vehicle: saline) is 90 % of control; the T/C (dose: 1200.0 mg/kg/injection, schedule: Q04DX004 (ip), vehicle: saline) is 90 % of control.

For `Cn1c(=S)[nH]n(CCOc2ccccc2)c1=S`, the T/C by setting is: under setting [4], 105 % of control; under setting [5], 99 % of control; under setting [6], 101 % of control; (dose: 250.0 mg/kg/injection, schedule: Q04DX004 (ip), vehicle: saline with Tween-80) 100 % of control.

In the case of `Cc1cc2c(=O)cc(-c3ccccc3)oc2c(C(=O)O)c1C`, the T/C was 98 % of control under setting [4], 93 % of control under setting [5] and 113 % of control under setting [6].

`O=C(c1ncccc1O)N1CCCCC1`: the T/C reads like this: (dose: 40.63 mg/kg/injection, schedule: Q04DX004 (ip), vehicle: distilled water + Tween-80) 86 % of control; (dose: 81.25 mg/kg/injection, schedule: Q04DX004 (ip), vehicle: distilled water + Tween-80) 103 % of control; (dose: 325.0 mg/kg/injection, schedule: Q04DX004 (ip), vehicle: distilled water + Tween-80) 97 % of control; (dose: 650.0 mg/kg/injection, schedule: Q04DX004 (ip), vehicle: distilled water + Tween-80) 90 % of control.

As for `Clc1nc2cc3c(cc2n2cccc12)oc1ccccc13`, the T/C runs as follows: under setting [7], 93 % of control; under setting [8], 95 % of control; under setting [9], 94 % of control; under setting [10], 86 % of control; under setting [11], 86 % of control.

With `C/C=C\C1OC1(C)c1cc(=O)c2c(C)cc3c(c2o1)C(=O)c1c(O)c(C2CC(C)(N(C)C)C(OC(C)=O)C(C)O2)cc(C2CC(N(C)C)C(O)C(C)O2)c1C3=O` (stereo unspecified), the T/C (dose: 0.19 mg/kg/injection, schedule: Q04DX004 (ip), vehicle: saline + alcohol) was 105 % of control; the T/C (dose: 0.38 mg/kg/injection, schedule: Q04DX004 (ip), vehicle: saline + alcohol) is 110 % of control; the T/C (dose: 0.75 mg/kg/injection, schedule: Q04DX004 (ip), vehicle: saline + alcohol) is 120 % of control; the T/C (dose: 3.0 mg/kg/injection, schedule: Q04DX004 (ip), vehicle: saline + alcohol) was 156 % of control.

Take `CCN(CC)CCCC(C)Nc1c2ccc(Cl)cc2nc2ccc(OC)cc12` (stereo unspecified): the T/C is 111 % of control (dose: 25.0 mg/kg/injection, schedule: Q04DX004 (ip), vehicle: saline); 115 % of control (dose: 50.0 mg/kg/injection, schedule: Q04DX004 (ip), vehicle: saline); 112 % of control (dose: 100.0 mg/kg/injection, schedule: Q04DX004 (ip), vehicle: saline); 91 % of control (dose: 200.0 mg/kg/injection, schedule: Q04DX004 (ip), vehicle: saline).

Take `CC(C)(C)NC(C1=CC(C)(C)c2ccccc2C1=O)c1ccccc1` (stereo unspecified): the T/C is, setting by setting: under setting [12], 103 % of control; under setting [13], 101 % of control; under setting [14], 110 % of control; (dose: 400.0 mg/kg/injection, schedule: Q04DX004 (ip), vehicle: Klucel (hydroxypropylcellulose) (HPC)) 104 % of control.

For `CCOC(=O)C1=C(C)O/C(=C/c2cccc(Cl)c2)C1=O`, the T/C runs as follows: under setting [9], 99 % of control; under setting [10], 100 % of control; under setting [11], 93 % of control.

As to `COC(COC(=O)N1CCN(C=O)CC1)C1=C(N2CC2)C(=O)C(C)=C(N2CC2)C1=O` (stereo unspecified), the T/C by setting is: (dose: 1.5 mg/kg/injection, schedule: Q04DX004 (ip), vehicle: saline) 124 % of control; (dose: 3.0 mg/kg/injection, schedule: Q04DX004 (ip), vehicle: saline) 152 % of control; (dose: 3.6 mg/kg/injection, schedule: Q04DX004 (ip), vehicle: saline) 150 % of control; (dose: 6.0 mg/kg/injection, schedule: Q04DX004 (ip), vehicle: saline) 176 % of control and 190 % of control; (dose: 10.0 mg/kg/injection, schedule: Q04DX004 (ip), vehicle: saline) 245 % of control; (dose: 12.0 mg/kg/injection, schedule: Q04DX004 (ip), vehicle: saline) 151 % of control.

For the compound `CC(C)(C[NH-])C[NH-].[Cl][Pt+2][Cl]`, the T/C is 116 % of control (dose: 0.25 mg/kg/injection, schedule: Q04DX004 (ip), vehicle: water); 157 % of control and 174 % of control (dose: 1.0 mg/kg/injection, schedule: Q04DX004 (ip), vehicle: water); 181 % of control and 198 % of control (dose: 2.0 mg/kg/injection, schedule: Q04DX004 (ip), vehicle: water); 90 % of control and 241 % of control (dose: 4.0 mg/kg/injection, schedule: Q04DX004 (ip), vehicle: water).

With `C1CCC(NC2CCCCC2)CC1`, the T/C by setting is: under setting [1], 103 % of control; under setting [2], 103 % of control; under setting [3], 100 % of control.

As for `COc1cc(C(C)(C)C)cc(OC)c1C(O)(c1c(OC)cc(C(C)(C)C)cc1OC)c1c(OC)cc(C(C)(C)C)cc1OC`, the T/C runs as follows: under setting [7], 123 % of control; under setting [8], 116 % of control; under setting [9], 108 % of control; under setting [10], 123 % of control.

Regarding `O=C(Nc1cccc(NC(=O)c2nn[nH]n2)n1)c1nn[nH]n1`, the T/C was 99 % of control under setting [12], 102 % of control under setting [13] and 94 % of control under setting [14].

With `NC(=O)c1cc(Cl)nc2nc(Cl)nc(N)c12`, the T/C is 100 % of control under setting [7]; 97 % of control under setting [8]; 99 % of control under setting [9]; 96 % of control under setting [10]; 93 % of control under setting [11].

Consider `NC(C/[N+]([O-])=N/O)C(=O)O` (stereo unspecified), for which the T/C is, setting by setting: (dose: 30.0 mg/kg/injection, schedule: Q04DX005 (ip), vehicle: alkali diluted with saline) 93 % of control; (dose: 120.0 mg/kg/injection, schedule: Q04DX005 (ip), vehicle: alkali diluted with saline) 103 % of control; (dose: 240.0 mg/kg/injection, schedule: Q04DX005 (ip), vehicle: alkali diluted with saline) 118 % of control.

For the compound `O=NNc1cccnc1`, the T/C runs as follows: (dose: 12.5 mg/kg/injection, schedule: Q04DX004 (ip), vehicle: water) 99 % of control and 119 % of control; (dose: 25.0 mg/kg/injection, schedule: Q04DX004 (ip), vehicle: water) 110 % of control and 113 % of control; (dose: 50.0 mg/kg/injection, schedule: Q04DX004 (ip), vehicle: water) 97 % of control and 110 % of control; (dose: 100.0 mg/kg/injection, schedule: Q04DX004 (ip), vehicle: water) 124 % of control.
